According to patent US11446351B2, “Composition for treating one or more estrogen related diseases” (LIFEARC, priority 2018, dated 2022):
Counter-ions that a name gives are not always drawn. Where a SMILES comes first, the peptide text is derived from it. [ ]: non-standard residue; d: D form. dPhe(4-Cl) = N[C@H](Cc1ccc(Cl)cc1)C(=O)O; d2Nal = N[C@H](Cc1ccc2ccccc2c1)C(=O)O; d(hCit) = NC(=O)NCCCC[C@@H](N)C(=O)O; Lys(iPr) = CC(C)NCCCC[C@H](N)C(=O)O; d3Pal = N[C@H](Cc1cccnc1)C(=O)O

Legend:
Format in all cases: in vivo, human
healthy female subjects [1] = assay: Phase I trial (Example 1): progesterone, LH and FSH in serum
Method: (§1) A phase I clinical trial with formulation A and B (and placebo) was conducted in order to evaluate the pharmacokinetics, pharmacodynamics, safety and tolerability of Teverelix TFA.
(§2) The formulations were each injected subcutaneous (s.c.) as follows: • A single dosage of formulation A (60 mg Teverelix TFA) administered s.c. on day 3±1 of the menstrual cycle, to 8 healthy female subjects • A single dosage of formulation A placebo was administered s.c. to on day 3±1 of the menstrual cycle, to 4 healthy female subjects • Two dosages of formulation B (45 mg Teverelix TFA) administered s.c. to 8 healthy female subjects. The first dosage on day 3±1 of the menstrual cycle and a second dosage administered on day 10±1 of the menstrual cycle, and • two dosages of formulation B placebo was administered s.c. to 4 healthy female subjects. The first dosage on day 3±1 of the […] menstrual cycle and a second dosage administered on day 10±1 of the menstrual cycle.

[2] = Phase I study (Example 2): Teverelix TFA concentrations in serum
Method: Two formulations comprising either 45 mg or 30 mg Teverelix TFA and a placebo formulations, were prepared as described in example 1, i.e. the following formulations were prepared
The respective formulations were each injected subcutaneous (s.c.) to 24 subjects—12 per group i.e. 8 on active drug 4 on placebo per group. All subjects received a dose on either the active or placebo s.c. on day 3±1 of the menstrual cycle, i.e. • A single dosage of formulation B (45 mg Teverelix TFA) administered s.c. on day 3±1 of the menstrual cycle, • A single dosages of formulation C (30 mg Teverelix TFA) administered s.c. on day 3±1 of the menstrual cycle, and • A single dosage of formulation B placebo or formulation C placebo administered s.c. on day 3±1 of the menstrual cycle.
The concentration of Teverelix TFA, and Estradiol was measured over a period of 63 days. Additionally, the effect on Teverelix TFA on two bone markers was measured.
The mean Teverelix TFA concentration in the serum of the respective subjects was measured.

[3] = Phase I trial (Example 1): pharmacokinetics, total systemic exposure of Teverelix
Method: (§3) The Teverelix TFA formulations were manufactured as followed. 0.8 ml or 0.6 ml 5% mannitol were added to the relevant dosage of 60 or 45 mg of the LHRH antagonist Teverelix® trifluoroacetate, respectively. The mixture was stirred using vortex during one minute providing two dosage formulations of Teverelix TFA in a flowing milky pearly microcrystalline aqueous suspensions. The suspensions are made of microcrystals of about 10 μm length. Corresponding placebo formulations, without Teverelix TFA was also prepared
as §1, §2

healthy female subjects [4] = assay: Phase I trial (Example 1): estradiol concentration in serum
Method: as §3, §1, §2
The mean estradiol concentration in the respective subjects was measured. The results are shown in table 1 and 2, respectively and is depicted in FIG. 1 in relation to the placebo data.

women [5] = assay: Phase I study (Example 2): bone marker CTX in serum
Method: (§4) In order to evaluate the effect of the treatment with Teverelix TFA on the bone mineral density, two biochemical bone mineral markers was measured in the subjects. Telopeptides type I collagen, cross-linked, […] (CTX) was measured in serum of the treated subjects, and deoxypyridinoline (DPD) was measured in the subject's urine.
(§5) Said bone markers were measured on the following days in the test period: 1 (pre-dose), 15, 29, 43, 57, 64
(§6) DPD is a dynamic biochemical marker of bone loss. An increase in DPD levels in an early morning urine specimen is a reliable indicator of increased bone loss. The CTX test measures for the presence and concentration of a crosslink peptide sequence of type I collagen, found, among other tissues, in bone. This specific peptide sequence relates to bone turnover because it is the portion that is cleaved by osteoclasts during bone resorption, and its serum levels are therefore proportional to osteoclastic activity at the time the blood sample is drawn.
(§7) The concentration of DPD and CTX test were carried out at MOS Pharma Services, Central Lab GmbH, Grossmoorbogen 25, 21079 Hamburg, Germany by means of highly sensitive and specific validated chemi-luminescent (CUA) and enzyme-linked immuno-sorbent (ELISA) methods. The results are shown in FIG. 7 and table 6 respectively.

women [6] = assay: Phase I study (Example 2): bone marker deoxypyridinoline (DPD) in urine; settings: 30 mg and 45 mg, days 1-64, FIG. 7
Method: as §4, §5, §6, §7

[7] = 60 mg single s.c. (Treatment Group 1)
[8] = 2 × 45 mg s.c. (Treatment Group 2)

period with quantifiable levels in serum ([2]; 30 mg dose): 42 days
Mean Teverelix TFA concentration in serum ([2]; 30 mg s.c., 0 h): 0.00 ng/L
period with quantifiable levels in serum ([2]; 45 mg dose): 64 days
Mean Teverelix TFA concentration in serum ([2]; 45 mg s.c., 0 h): 0.00 ng/L
Mean Teverelix TFA concentration in serum ([2]; 30 + 45 mg groups, 0 h): 0.00 ng/L
Mean Teverelix TFA concentration in serum ([2]; 30 + 45 mg groups, 0.5 h): 5.79 ng/L
AUC(0−cq), Geometric Mean [3, 7]: 1.592 µM·h
AUC(0−t), Geometric Mean [3, 7]: 1.907 µM·h
CmaxInit1, Geometric Mean [3, 7]: 10.9 nM
CmaxLate, Geometric Mean [3, 7]: 2.63 nM
AUC(0−cq), Geometric Mean [3, 8]: 2.323 µM·h
AUC(0−t), Geometric Mean [3, 8]: 2.833 µM·h
CmaxInit1, Geometric Mean [3, 8]: 6.03 nM
CmaxInit2, Geometric Mean [3, 8]: 7.03 nM
CmaxLate, Geometric Mean [3, 8]: 3.63 nM
total systemic exposure, two injections of 45 mg one week apart compared with a single 60 mg injection ([3]; s.c., healthy female subjects): approximately 1.5 fold
alteration in bone marker serum CTX during the study (women [5]; 30 mg and 45 mg, days 1-64): no significant alteration
CTX in serum, Mean (women [5]; 30 mg, Day 1 (pre-dose)): 16.7 ng/L
CTX in serum, Mean (women [5]; 30 mg, Day 15): 17.1 ng/L
CTX in serum, Mean (women [5]; 30 mg, Day 29): 17 ng/L
CTX in serum, Mean (women [5]; 30 mg, Day 43): 16.7 ng/L
CTX in serum, Mean (women [5]; 30 mg, Day 57): 16.5 ng/L
CTX in serum, Mean (women [5]; 30 mg, Day 64): 16.2 ng/L
CTX in serum, Mean (women [5]; 45 mg, Day 1 (pre-dose)): 22.6 ng/L
CTX in serum, Mean (women [5]; 45 mg, Day 15): 22.4 ng/L
CTX in serum, Mean (women [5]; 45 mg, Day 29): 21.6 ng/L
CTX in serum, Mean (women [5]; 45 mg, Day 43): 22 ng/L
CTX in serum, Mean (women [5]; 45 mg, Day 57): 19.3 ng/L
CTX in serum, Mean (women [5]; 45 mg, Day 64): 17.3 ng/L
alteration in bone marker urine DPD during the study (women [6]): no significant alteration
SMILES: CC(=O)N[C@H](Cc1ccc2ccccc2c1)C(=O)N[C@H](Cc1ccc(Cl)cc1)C(=O)N[C@H](Cc1cccnc1)C(=O)N[C@@H](CO)C(=O)N[C@@H](Cc1ccc(O)cc1)C(=O)N[C@H](CCCCNC(N)=O)C(=O)N[C@@H](CC(C)C)C(=O)N[C@@H](CCCCNC(C)C)C(=O)N1CCC[C@H]1C(=O)N[C@H](C)C(N)=O [Teverelix TFA, N-Ac-d-Nal^1,d-pCl-Phe^2,d-Pal^3,d-(Hci)^6,Lys(iPr)^8,d-Ala^10 trifluoroacetate] (Ac-[d2Nal][dPhe(4-Cl)][d3Pal]SY[d(hCit)]L[Lys(iPr)]P[dA]-NH2; C-terminus assumed)
concentration of progesterone following dosing (healthy female subjects [1]; FIG. 2): decreased
concentration of LH following dosing (healthy female subjects [1]; FIG. 3): decreased
concentration of FSH following dosing (healthy female subjects [1]; FIG. 4): decreased
time at which estradiol returned to near baseline and menses reoccurred in at least one subject (healthy female subjects [4]; 2 × 45 mg one week apart): 1008 h p.f.a
estradiol mean (SD) concentration relative to baseline (healthy female subjects [4]; 2 × 45 mg, after first injection, 48 h p.f.a.): −14.56 (9.95) ng/L
estradiol mean (SD) concentration relative to baseline (healthy female subjects [4]; 2 × 45 mg, after second injection, 312 h p.f.a.): −14.20 (10.85) ng/L
estradiol concentrations when compared to placebo (healthy female subjects [4]; both doses (60 mg; 2 × 45 mg), FIG. 1): significantly reduced
time at which estradiol returned to near baseline and menses reoccurred in at least one subject (healthy female subjects [4]; single 60 mg): 840 h p.f.a
estradiol mean (SD) concentration relative to baseline (healthy female subjects [4]; single 60 mg, 264 h p.f.a): −31.22 (23.11) ng/L
estradiol mean (SD) concentration relative to baseline (healthy female subjects [4]; single 60 mg, 456 h p.f.a): −1.04 (90.98) ng/L
